Experimental data as given in patent publication US20250082633A1, “COMPOUNDS AND METHODS FOR MODULATING SPLICING” (REMIX THERAPEUTICS INC., priority 2021, published 2025).
Counter-ions that a name gives are not always drawn. Like-named read-outs stand apart in the source and are kept apart here.

Legend:
Format in all cases: cell-based
HTT mRNA = assay: RT-qPCR splicing assay, HTT canonical (CJ) and alternative (AJ) junction mRNA; conditions: Homo sapiens; for IC50: read-out: HTT CJ IC50; for AC50: read-out: HTT AJ AC50
Procedure, shortened: (§1)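 Splice-junction mRNAs (CJ, AJ) measured by TaqMan one-step RT-qPCR on cell lysates, using PPIA as reference for adherent A673 and GAPDH or GUSB for K562. Cells exposed for 24 h to 11 threefold concentrations up to 10 uM final, with DMSO at or below 0.25%.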

MYB mRNA = assay: RT-qPCR splicing assay, MYB canonical (CJ) and alternative (AJ) junction mRNA; conditions: Homo sapiens; for IC50: read-out: MYB CJ IC50; for AC50: read-out: MYB AJ AC50
Procedure, shortened: as §1

Target C = assay: RT-qPCR splicing assay, gene panel, Target C canonical junction (CJ) mRNA; conditions: Homo sapiens, read-out: Target C CJ IC50
Procedure, shortened: (§2)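 A673 (DMEM/10% FBS) or K562 (IMDM/10% FBS) cells were treated 24 h at 37 °C with an 11-point 3-fold dilution series, top final 10 uM, DMSO ≤0.25%. Lysates underwent one-step RT-qPCR for the canonical-junction isoform with GAPDH, GUSB or PPIA as housekeeper. ΔΔCt versus DMSO was converted to RQ (2^−ΔΔCt), then to percent response.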

SMN2 mRNA = assay: RT-qPCR splicing assay, gene panel, SMN2 canonical junction (CJ) mRNA; conditions: Homo sapiens, read-out: SMN2 CJ IC50
Procedure, shortened: as §2

K562 cells = assay: Cell Titer Glo 2.0 cell viability assay; conditions: Homo sapiens, 500 cells/well, 72 hours
Procedure, shortened: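 K562 cells (500/well) in IMDM with 10% FBS were exposed to serially diluted compounds at 0.1% DMSO final. After 72 h at 37° C, 5% CO2, viability was read by CellTiter-Glo 2.0 luminescence, with medium-only blanks.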

[1] = decrease in CJ mRNA levels, larger panel of genes, Table 3
[2] = decrease in canonical junction mRNA, A673 or K562 cells, 24 hours treatment, Table 2
[3] = increase in alternative junction mRNA, A673 or K562 cells, 24 hours treatment, Table 2

SMILES | IC50 (HTT mRNA; [1]) [nM] | IC50 (HTT mRNA; [2]) [nM] | IC50 (MYB mRNA; [1]) [nM] | IC50 (MYB mRNA; [2]) [nM] | IC50 (Target C; [1]) [nM] | IC50 (SMN2 mRNA; [1]) [nM] | GI50 (K562 cells) [nM] | AC50 (HTT mRNA; [3]) [nM] | AC50 (MYB mRNA; [3]) [nM] | AC50 (HTT mRNA; 24 h) [nM] | IC50 (HTT mRNA; 24 h) [nM] | IC50 (HTT mRNA) [nM] | AC50 (MYB mRNA; 24 h) [nM] | IC50 (MYB mRNA; 24 h) [nM] | IC50 (MYB mRNA) [nM] | IC50 (Target C) [nM] | IC50 (SMN2 mRNA) [nM]
Cn1cc2cc(-c3ccc4nn(C5CCNCC5)cc4n3)c(O)cc2n1 [Compound 110, 2-methyl-5-[2-(4-piperidyl)pyrazolo[4,3-b]pyridin-5-yl]indazol-6-ol] | 100 to 1000 | 100 to 1000 | 100 to 1000 | 100 to 1000 | 1000 to 10000 | < 100 | 1000 to 10000 | 1000 to 10000 | 100 to 1000 |  |  |  |  |  |  |  | 
Cc1c(O)c(-c2ccc3nn(C4CCNCC4)nc3n2)cc2cn(C)nc12 [Compound 113, 2,7-dimethyl-5-[2-(4-piperidyl)triazolo[4,5-b]pyridin-5-yl]indazol-6-ol] | 1000 to 10000 | 1000 to 10000 | > 10000 | > 10000 | > 10000 | 1000 to 10000 | 1000 to 10000 | 1000 to 10000 | > 10000 |  |  |  |  |  |  |  | 
Cc1cc(-n2cc3cc(C4CCNCC4)cc(F)c3n2)cc2cn(C)nc12 [Compound 115, 2-(2,7-dimethylindazol-5-yl)-7-fluoro-5-(4-piperidyl)indazole] | 1000 to 10000 | 1000 to 10000 | > 10000 | > 10000 | 1000 to 10000 | 100 to 1000 | 1000 to 10000 | 1000 to 10000 | 1000 to 10000 |  |  |  |  |  |  |  | 
Cc1cc(-n2cc3cc(N4CCNCC4)cc(F)c3n2)cc2cn(C)nc12 [Compound 117, 2-(2,7-dimethylindazol-5-yl)-7-fluoro-5-piperazin-1-yl-indazole] | > 10000 | > 10000 | > 10000 | > 10000 | > 10000 | 100 to 1000 | 1000 to 10000 | 1000 to 10000 | 1000 to 10000 |  |  |  |  |  |  |  | 
Cc1nc2c(C)cc(-n3cc4cc(N5CCNCC5)cc(F)c4n3)cc2o1 [Compound 119, 6-(7-fluoro-5-piperazin-1-yl-indazol-2-yl)-2,4-dimethyl-1,3-benzoxazole] | > 10000 | > 10000 | > 10000 | > 10000 | > 10000 | 1000 to 10000 | > 10000 | > 10000 | > 10000 |  |  |  |  |  |  |  | 
Cc1cn2nc(-n3cc4cc(C5CCNCC5)cc(F)c4n3)cc(C)c2n1 [Compound 120, 6-[7-fluoro-5-(4-piperidyl)indazol-2-yl]-2,8-dimethyl-imidazo[1,2-b]pyridazine] | 1000 to 10000 | 1000 to 10000 | > 10000 | > 10000 | > 10000 | 100 to 1000 | 1000 to 10000 | > 10000 | 1000 to 10000 |  |  |  |  |  |  |  | 
Cc1cc(-n2cc3cc(N4CCNCC4)ccc3n2)cc2cn(C)nc12 [Compound 121, 2,7-dimethyl-5-(5-piperazin-1-ylindazol-2-yl)indazole] | > 10000 | > 10000 | > 10000 | > 10000 | > 10000 | 1000 to 10000 | 1000 to 10000 | > 10000 | > 10000 |  |  |  |  |  |  |  | 
Cc1cn2nc(-c3cc(F)c4nn(C5CCNCC5)cc4c3)cc(C)c2n1 [Compound 122, 6-(7-fluoro-2-(piperidin-4-yl)-2H-indazol-5-yl)-2,8-dimethylimidazo [1,2-b]pyridazine hydrochloride salt] |  |  |  |  |  |  | < 100 |  |  | < 100 | < 100 | < 100 | < 100 | < 100 | < 100 | < 100 | < 100
Cc1nc2c(C)c(O)c(-c3cc(F)c4nn(C5CCNCC5)cc4c3)cc2o1 [Compound 123, 6-[7-fluoro-2-(4-piperidyl)indazol-5-yl]-2,4-dimethyl-1,3-benzoxazol-5-ol] | 100 to 1000 | 100 to 1000 | 1000 to 10000 | 1000 to 10000 | 1000 to 10000 | 100 to 1000 | 1000 to 10000 | 100 to 1000 | 1000 to 10000 |  |  |  |  |  |  |  | 
Cc1cn2nc(-c3cc(F)c4nn(C5CCNCC5)cc4c3)cc2c(C)n1 [Compound 124, 2-[7-fluoro-2-(4-piperidyl)indazol-5-yl]-4,6-dimethyl-pyrazolo[1,5-a]pyrazine] | < 100 | < 100 | 100 to 1000 | 100 to 1000 | 100 to 1000 | < 100 | 100 to 1000 | < 100 | 100 to 1000 |  |  |  |  |  |  |  | 

Second part, led by results:

IC50 (HTT mRNA; [1]) [nM] | IC50 (HTT mRNA; [2]) [nM] | IC50 (MYB mRNA; [1]) [nM] | IC50 (MYB mRNA; [2]) [nM] | IC50 (Target C; [1]) [nM] | IC50 (SMN2 mRNA; [1]) [nM] | GI50 (K562 cells) [nM] | SMILES | AC50 (HTT mRNA; [3]) [nM] | AC50 (MYB mRNA; [3]) [nM] | AC50 (HTT mRNA; 24 h) [nM] | IC50 (HTT mRNA; 24 h) [nM] | IC50 (HTT mRNA) [nM] | AC50 (MYB mRNA; 24 h) [nM] | IC50 (MYB mRNA; 24 h) [nM] | IC50 (MYB mRNA) [nM] | IC50 (Target C) [nM] | IC50 (SMN2 mRNA) [nM]
100 to 1000 | 100 to 1000 | 100 to 1000 | 100 to 1000 | 100 to 1000 | < 100 | 100 to 1000 | Cc1cn2cc(-c3cc(F)c4nn(C5CCNCC5)cc4c3)cc(C)c2n1 [Compound 125, 5-(2,8-dimethylimidazo[1,2-a]pyridin-6-yl)-7-fluoro-2-(4-piperidyl)indazole] | 100 to 1000 | 100 to 1000 |  |  |  |  |  |  |  | 
1000 to 10000 | 1000 to 10000 | > 10000 | > 10000 | 1000 to 10000 | 1000 to 10000 | > 10000 | Cc1c(O)c(-c2cc(F)c3nn(C4CCNCC4)cc3c2)cc2cn(C)nc12 [Compound 126, 5-[7-fluoro-2-(4-piperidyl)indazol-5-yl]-2,7-dimethyl-indazol-6-ol] | > 10000 | > 10000 |  |  |  |  |  |  |  | 
< 100 | < 100 | 100 to 1000 | 100 to 1000 | 100 to 1000 | < 100 | 100 to 1000 | Cc1cn2cc(-c3cc(F)c4nn(C5CCNCC5)cc4c3)cc(Cl)c2n1 [Compound 127, 5-(8-chloro-2-methylimidazo[1,2-a]pyridin-6-yl)-7-fluoro-2-(piperidin-4-yl)-2H-indazole hydrochloride salt] | 100 to 1000 | 100 to 1000 |  |  |  |  |  |  |  | 
< 100 | < 100 | 100 to 1000 | 100 to 1000 | 100 to 1000 | < 100 | 100 to 1000 | Cc1cn2cc(-c3cc(F)c4nn(C5CCNCC5)cc4c3)cc(F)c2n1 [Compound 129, 7-fluoro-5-(8-fluoro-2-methylimidazo[1,2-a]pyridin-6-yl)-2-(piperidin-4-yl)-2H-indazole] | < 100 | 100 to 1000 |  |  |  |  |  |  |  | 
< 100 | < 100 | 100 to 1000 | 100 to 1000 | 100 to 1000 | < 100 | 100 to 1000 | Cn1cc2cc(-c3cc(F)c4nn(C5CCNCC5)cc4c3)cc(C#N)c2n1 [Compound 130, 5-[7-fluoro-2-(4-piperidyl)indazol-5-yl]-2-methyl-indazole-7-carbonitrile] | < 100 | 100 to 1000 |  |  |  |  |  |  |  | 
100 to 1000 | 100 to 1000 | 1000 to 10000 | 1000 to 10000 | 1000 to 10000 | 100 to 1000 | 1000 to 10000 | Cc1cn2cc(-c3cc(F)c4nn(C5CCNCC5)cc4c3)nc(C)c2n1 [Compound 132, 6-[7-fluoro-2-(4-piperidyl)indazol-5-yl]-2,8-dimethyl-imidazo[1,2-a]pyrazine] | 100 to 1000 | 1000 to 10000 |  |  |  |  |  |  |  | 
< 100 | < 100 | 100 to 1000 | 100 to 1000 | 100 to 1000 | < 100 | 100 to 1000 | Cc1cc(-c2cc(F)c3nn(C4CCNCC4)cc3c2)cc2cn(C)nc12 [Compound 133, 5-(2,7-dimethylindazol-5-yl)-7-fluoro-2-(4-piperidyl)indazole] | < 100 | 100 to 1000 |  |  |  |  |  |  |  | 
1000 to 10000 | 1000 to 10000 | 1000 to 10000 | 1000 to 10000 | > 10000 | 100 to 1000 | 1000 to 10000 | Cc1nc2ccc(-c3cc(F)c4nn(C5CCNCC5)cc4c3)cc2s1 [Compound 134, 6-(7-fluoro-2-(piperidin-4-yl)-2H-indazol-5-yl)-2-methylbenzo[d]thiazole] | > 10000 | > 10000 |  |  |  |  |  |  |  | 
100 to 1000 | 100 to 1000 | 100 to 1000 | 100 to 1000 | 100 to 1000 | < 100 | 100 to 1000 | Cc1nc2ccc(-c3cc(F)c4nn(C5CCNCC5)cc4c3)cc2o1 [Compound 135, 6-[7-fluoro-2-(4-piperidyl)indazol-5-yl]-2-methyl-1,3-benzoxazole] | 100 to 1000 | 100 to 1000 |  |  |  |  |  |  |  | 
